Assay results as given in ChEMBL document CHEMBL1156950, “Synthesis and biological evaluation of 4-anilinoquinolines as potent inhibitors of epidermal growth factor receptor” (J Med Chem, 2010).

Tests used:
[1] = target: Mitogen-activated protein kinase 12 (Homo sapiens) (UniProt P53778); test: Inhibition of p38-gamma at 10 uM assessed as residual activity by [33P]ATP radioactive filter binding assay relative to control
[2] = target: MAP/microtubule affinity-regulating kinase 4 (Homo sapiens) (UniProt Q96L34); test: Inhibition of MARK4 at 10 uM assessed as residual activity by [33P]ATP radioactive filter binding assay relative to control
[3] = target: Mitogen-activated protein kinase kinase kinase kinase 2 (Homo sapiens) (UniProt Q12851); test: Inhibition of GCK at 10 uM assessed as residual activity by [33P]ATP radioactive filter binding assay relative to control
[4] = target: Serine/threonine-protein kinase Chk2 (Homo sapiens) (UniProt O96017); test: Inhibition of CHK2 at 10 uM assessed as residual activity by [33P]ATP radioactive filter binding assay relative to control
[5] = target: Dual specificity tyrosine-phosphorylation-regulated kinase 2 (Homo sapiens) (UniProt Q92630); test: Inhibition of DYRK2 at 10 uM assessed as residual activity by [33P]ATP radioactive filter binding assay relative to control
[6] = target: Insulin receptor-related protein (Homo sapiens) (UniProt P14616); test: Inhibition of IRR at 10 uM assessed as residual activity by [33P]ATP radioactive filter binding assay relative to control
[7] = target: Homeodomain-interacting protein kinase 1 (Homo sapiens) (UniProt Q86Z02); test: Inhibition of HIPK1 at 10 uM assessed as residual activity by [33P]ATP radioactive filter binding assay relative to control
[8] = target: MAP kinase-activated protein kinase 2 (Homo sapiens) (UniProt P49137); test: Inhibition of MAPKAP-K2 at 10 uM assessed as residual activity by [33P]ATP radioactive filter binding assay relative to control
[9] = target: Mitogen-activated protein kinase 3 (Homo sapiens) (UniProt P27361); test: Inhibition of ERK1 at 10 uM assessed as residual activity by [33P]ATP radioactive filter binding assay relative to control
[10] = target: Serine/threonine-protein kinase N2 (Homo sapiens) (UniProt Q16513); test: Inhibition of PRK2 at 10 uM assessed as residual activity by [33P]ATP radioactive filter binding assay relative to control
[11] = target: Serine/threonine-protein kinase PLK1 (Homo sapiens) (UniProt P53350); test: Inhibition of PLK1 at 10 uM assessed as residual activity by [33P]ATP radioactive filter binding assay relative to control
[12] = cells; conditions: Mus musculus, BaF3, 96 h
Description: Growth inhibition of mouse BA/F3 cells expressing EGFR Del3 and Thr790Met mutant after 96 hrs by cell titer-glo assay

[13] = target: Ephrin type-B receptor 3 (Homo sapiens) (UniProt P54753); test: Inhibition of EPH-B3 at 10 uM assessed as residual activity by [33P]ATP radioactive filter binding assay relative to control
[14] = target: Protein kinase C alpha type (Homo sapiens) (UniProt P17252); test: Inhibition of PKCalpha at 10 uM assessed as residual activity by [33P]ATP radioactive filter binding assay relative to control
[15] = Inhibition of VEGFR at 10 uM assessed as residual activity by [33P]ATP radioactive filter binding assay relative to control
[16] = target: Tyrosine-protein kinase BTK (Homo sapiens) (UniProt Q06187); test: Inhibition of BTK at 10 uM assessed as residual activity by [33P]ATP radioactive filter binding assay relative to control
[17] = target: Rho-associated protein kinase 2 (Homo sapiens) (UniProt O75116); test: Inhibition of ROCK2 at 10 uM assessed as residual activity by [33P]ATP radioactive filter binding assay relative to control
[18] = target: Myosin light chain kinase, smooth muscle (Homo sapiens) (UniProt Q15746); test: Inhibition of SmMLCK at 10 uM assessed as residual activity by [33P]ATP radioactive filter binding assay relative to control
[19] = target: Tyrosine-protein kinase Yes (Homo sapiens) (UniProt P07947); test: Inhibition of YES1 at 10 uM assessed as residual activity by [33P]ATP radioactive filter binding assay relative to control
[20] = cells; conditions: Mus musculus, BaF3, 96 h; remark: listed apart in the source
[21] = target: Mitogen-activated protein kinase 15 (Homo sapiens) (UniProt Q8TD08); test: Inhibition of ERK8 at 10 uM assessed as residual activity by [33P]ATP radioactive filter binding assay relative to control
[22] = Inhibition of CK2 at 10 uM assessed as residual activity by [33P]ATP radioactive filter binding assay relative to control
[23] = target: MAP/microtubule affinity-regulating kinase 3 (Homo sapiens) (UniProt P27448); test: Inhibition of MARK3 at 10 uM assessed as residual activity by [33P]ATP radioactive filter binding assay relative to control
[24] = target: Insulin-like growth factor 1 receptor (Homo sapiens) (UniProt P08069); test: Inhibition of IGF-1R at 10 uM assessed as residual activity by [33P]ATP radioactive filter binding assay relative to control
[25] = target: Casein kinase I isoform alpha (Homo sapiens) (UniProt P48729); test: Inhibition of CK1 at 10 uM assessed as residual activity by [33P]ATP radioactive filter binding assay relative to control
[26] = target: MAP kinase-interacting serine/threonine-protein kinase 2 (Homo sapiens) (UniProt Q9HBH9); test: Inhibition of MNK2 at 10 uM assessed as residual activity by [33P]ATP radioactive filter binding assay relative to control
[27] = cells; conditions: Mus musculus, BaF3, 96 h; remark: listed apart in the source
Description: Growth inhibition of mouse BA/F3 cells expressing EGFR Del1 and Thr790Met mutant after 96 hrs by cell titer-glo assay

[28] = target: Calcium/calmodulin-dependent protein kinase type 1 (Homo sapiens) (UniProt Q14012); test: Inhibition of CAMK1 at 10 uM assessed as residual activity by [33P]ATP radioactive filter binding assay relative to control
[29] = target: Fibroblast growth factor receptor 1 (Homo sapiens) (UniProt P11362); test: Inhibition of FGF-R1 at 10 uM assessed as residual activity by [33P]ATP radioactive filter binding assay relative to control
[30] = target: Mitogen-activated protein kinase kinase kinase 11 (Homo sapiens) (UniProt Q16584); test: Inhibition of MLK3 at 10 uM assessed as residual activity by [33P]ATP radioactive filter binding assay relative to control
[31] = target: Inhibitor of nuclear factor kappa-B kinase subunit epsilon (Homo sapiens) (UniProt Q14164); test: Inhibition of IKKepsilon at 10 uM assessed as residual activity by [33P]ATP radioactive filter binding assay relative to control
[32] = target: NUAK family SNF1-like kinase 1 (Homo sapiens) (UniProt O60285); test: Inhibition of NUAK1 at 10 uM assessed as residual activity by [33P]ATP radioactive filter binding assay relative to control
[33] = target: Serine/threonine-protein kinase pim-1 (Homo sapiens) (UniProt P11309); test: Inhibition of PIM1 at 10 uM assessed as residual activity by [33P]ATP radioactive filter binding assay relative to control

Chain of MAP kinase-interacting serine/threonine-protein kinase 2 (Homo sapiens) (Q9HBH9 whole entry, looked up): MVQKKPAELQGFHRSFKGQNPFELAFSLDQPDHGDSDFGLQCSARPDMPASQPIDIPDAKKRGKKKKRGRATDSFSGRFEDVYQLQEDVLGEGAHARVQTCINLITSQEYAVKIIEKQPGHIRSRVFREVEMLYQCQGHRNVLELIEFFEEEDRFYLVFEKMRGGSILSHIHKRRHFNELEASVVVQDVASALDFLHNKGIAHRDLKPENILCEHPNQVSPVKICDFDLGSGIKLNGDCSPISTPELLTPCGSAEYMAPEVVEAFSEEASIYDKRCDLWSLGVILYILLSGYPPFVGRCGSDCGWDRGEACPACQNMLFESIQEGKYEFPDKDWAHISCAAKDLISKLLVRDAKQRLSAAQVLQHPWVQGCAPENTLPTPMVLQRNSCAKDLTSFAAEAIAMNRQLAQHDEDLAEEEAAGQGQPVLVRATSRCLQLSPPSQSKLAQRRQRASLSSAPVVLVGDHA
Chain of Mitogen-activated protein kinase 3 (Homo sapiens) (P27361 whole entry): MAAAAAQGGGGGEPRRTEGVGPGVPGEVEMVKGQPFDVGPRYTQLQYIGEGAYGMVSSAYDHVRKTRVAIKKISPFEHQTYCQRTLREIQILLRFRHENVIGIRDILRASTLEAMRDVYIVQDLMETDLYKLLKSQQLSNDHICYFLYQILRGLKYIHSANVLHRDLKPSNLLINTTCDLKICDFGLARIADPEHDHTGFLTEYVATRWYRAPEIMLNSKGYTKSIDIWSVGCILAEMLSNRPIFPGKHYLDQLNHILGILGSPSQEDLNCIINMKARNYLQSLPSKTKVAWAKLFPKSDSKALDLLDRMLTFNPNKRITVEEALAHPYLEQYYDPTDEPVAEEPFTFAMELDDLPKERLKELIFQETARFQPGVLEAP
Chain of MAP/microtubule affinity-regulating kinase 3 (Homo sapiens) (P27448 whole entry, looked up): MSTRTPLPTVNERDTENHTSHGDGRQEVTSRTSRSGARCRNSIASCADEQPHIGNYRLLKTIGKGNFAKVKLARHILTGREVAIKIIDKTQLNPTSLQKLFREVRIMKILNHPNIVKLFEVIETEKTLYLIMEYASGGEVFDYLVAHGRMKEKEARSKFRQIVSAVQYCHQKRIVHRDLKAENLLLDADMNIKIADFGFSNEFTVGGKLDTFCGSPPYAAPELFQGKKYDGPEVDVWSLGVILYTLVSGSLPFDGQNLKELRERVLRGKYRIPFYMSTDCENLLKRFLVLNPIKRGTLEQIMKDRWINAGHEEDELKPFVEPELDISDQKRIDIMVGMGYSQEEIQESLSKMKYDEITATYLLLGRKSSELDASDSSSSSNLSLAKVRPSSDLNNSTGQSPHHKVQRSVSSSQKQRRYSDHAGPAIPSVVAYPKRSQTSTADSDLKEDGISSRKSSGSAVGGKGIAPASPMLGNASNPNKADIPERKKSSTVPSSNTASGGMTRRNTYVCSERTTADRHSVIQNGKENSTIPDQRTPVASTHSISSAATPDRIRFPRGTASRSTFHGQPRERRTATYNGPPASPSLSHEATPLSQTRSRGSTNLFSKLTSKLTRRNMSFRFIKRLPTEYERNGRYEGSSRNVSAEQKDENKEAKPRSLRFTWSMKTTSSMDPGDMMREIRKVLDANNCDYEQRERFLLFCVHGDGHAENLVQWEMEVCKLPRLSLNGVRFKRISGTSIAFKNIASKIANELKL
Chain of Myosin light chain kinase, smooth muscle (Homo sapiens) (Q15746 whole entry): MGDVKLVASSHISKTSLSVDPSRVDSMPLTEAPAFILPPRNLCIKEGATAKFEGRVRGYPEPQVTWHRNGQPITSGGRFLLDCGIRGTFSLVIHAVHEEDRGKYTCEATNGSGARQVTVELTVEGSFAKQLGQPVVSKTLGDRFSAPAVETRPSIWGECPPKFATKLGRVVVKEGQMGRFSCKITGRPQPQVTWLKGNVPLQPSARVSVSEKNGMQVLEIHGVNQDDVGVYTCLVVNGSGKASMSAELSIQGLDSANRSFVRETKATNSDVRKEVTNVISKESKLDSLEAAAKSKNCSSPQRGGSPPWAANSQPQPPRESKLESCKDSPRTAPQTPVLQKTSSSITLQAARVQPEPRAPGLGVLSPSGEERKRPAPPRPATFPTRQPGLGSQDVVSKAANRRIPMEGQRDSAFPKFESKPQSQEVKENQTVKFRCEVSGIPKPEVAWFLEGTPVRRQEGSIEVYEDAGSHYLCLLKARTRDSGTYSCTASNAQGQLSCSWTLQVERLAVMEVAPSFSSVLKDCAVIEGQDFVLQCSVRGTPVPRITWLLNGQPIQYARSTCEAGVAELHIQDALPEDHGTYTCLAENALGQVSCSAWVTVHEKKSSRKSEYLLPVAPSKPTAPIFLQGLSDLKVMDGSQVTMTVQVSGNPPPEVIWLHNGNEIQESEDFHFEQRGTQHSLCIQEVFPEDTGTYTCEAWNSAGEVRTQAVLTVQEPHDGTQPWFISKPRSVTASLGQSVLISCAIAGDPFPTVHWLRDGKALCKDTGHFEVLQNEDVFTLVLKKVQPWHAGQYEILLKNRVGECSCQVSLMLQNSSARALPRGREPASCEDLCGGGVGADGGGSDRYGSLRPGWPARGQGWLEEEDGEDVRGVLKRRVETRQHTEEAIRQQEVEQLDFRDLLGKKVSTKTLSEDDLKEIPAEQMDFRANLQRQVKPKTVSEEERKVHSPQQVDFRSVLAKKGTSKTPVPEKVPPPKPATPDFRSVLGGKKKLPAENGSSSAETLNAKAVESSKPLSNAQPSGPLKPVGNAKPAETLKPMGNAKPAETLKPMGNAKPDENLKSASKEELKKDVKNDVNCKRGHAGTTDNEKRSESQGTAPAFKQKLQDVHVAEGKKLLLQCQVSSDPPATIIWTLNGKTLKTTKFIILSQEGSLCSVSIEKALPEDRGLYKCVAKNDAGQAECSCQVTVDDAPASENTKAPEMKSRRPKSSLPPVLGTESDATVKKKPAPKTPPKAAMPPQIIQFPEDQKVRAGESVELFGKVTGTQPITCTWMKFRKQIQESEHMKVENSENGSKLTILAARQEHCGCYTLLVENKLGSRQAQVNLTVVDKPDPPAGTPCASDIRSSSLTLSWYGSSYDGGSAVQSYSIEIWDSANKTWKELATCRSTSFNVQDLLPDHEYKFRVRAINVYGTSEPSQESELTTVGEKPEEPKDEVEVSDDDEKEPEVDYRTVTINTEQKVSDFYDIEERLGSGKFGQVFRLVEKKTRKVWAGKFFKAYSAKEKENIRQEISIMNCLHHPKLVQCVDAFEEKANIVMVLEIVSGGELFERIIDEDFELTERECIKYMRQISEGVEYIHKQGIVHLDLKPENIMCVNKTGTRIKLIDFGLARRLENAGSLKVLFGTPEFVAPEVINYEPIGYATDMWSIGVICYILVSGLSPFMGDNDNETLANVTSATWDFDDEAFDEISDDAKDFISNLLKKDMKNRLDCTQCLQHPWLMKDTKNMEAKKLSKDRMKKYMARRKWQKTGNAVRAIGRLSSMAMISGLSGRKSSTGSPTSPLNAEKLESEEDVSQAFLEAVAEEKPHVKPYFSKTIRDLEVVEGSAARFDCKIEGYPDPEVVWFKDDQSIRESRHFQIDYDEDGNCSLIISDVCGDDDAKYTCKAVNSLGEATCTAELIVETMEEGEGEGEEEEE
Chain of Insulin receptor-related protein (Homo sapiens) (P14616 27-742 limits assumed): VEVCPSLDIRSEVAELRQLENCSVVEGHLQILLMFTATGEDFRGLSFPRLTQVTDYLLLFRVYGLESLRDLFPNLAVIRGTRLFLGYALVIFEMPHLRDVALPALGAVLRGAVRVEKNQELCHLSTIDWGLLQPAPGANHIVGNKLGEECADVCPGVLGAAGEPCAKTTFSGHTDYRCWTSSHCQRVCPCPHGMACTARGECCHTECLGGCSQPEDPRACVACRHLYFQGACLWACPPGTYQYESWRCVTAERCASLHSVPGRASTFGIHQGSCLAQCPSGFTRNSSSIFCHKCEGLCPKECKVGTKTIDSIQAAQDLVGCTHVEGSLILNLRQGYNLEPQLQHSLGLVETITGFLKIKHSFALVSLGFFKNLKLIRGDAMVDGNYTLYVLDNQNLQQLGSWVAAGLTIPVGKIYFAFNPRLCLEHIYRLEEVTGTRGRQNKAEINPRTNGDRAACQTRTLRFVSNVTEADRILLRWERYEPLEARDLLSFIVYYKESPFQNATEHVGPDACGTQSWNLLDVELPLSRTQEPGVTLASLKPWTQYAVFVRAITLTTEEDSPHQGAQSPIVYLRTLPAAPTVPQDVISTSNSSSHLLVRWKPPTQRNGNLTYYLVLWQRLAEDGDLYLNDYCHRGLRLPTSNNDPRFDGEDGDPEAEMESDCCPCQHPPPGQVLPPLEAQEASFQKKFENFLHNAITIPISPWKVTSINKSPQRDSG
Chain of Insulin receptor-related protein (Homo sapiens) (P14616 747-1297 limits assumed): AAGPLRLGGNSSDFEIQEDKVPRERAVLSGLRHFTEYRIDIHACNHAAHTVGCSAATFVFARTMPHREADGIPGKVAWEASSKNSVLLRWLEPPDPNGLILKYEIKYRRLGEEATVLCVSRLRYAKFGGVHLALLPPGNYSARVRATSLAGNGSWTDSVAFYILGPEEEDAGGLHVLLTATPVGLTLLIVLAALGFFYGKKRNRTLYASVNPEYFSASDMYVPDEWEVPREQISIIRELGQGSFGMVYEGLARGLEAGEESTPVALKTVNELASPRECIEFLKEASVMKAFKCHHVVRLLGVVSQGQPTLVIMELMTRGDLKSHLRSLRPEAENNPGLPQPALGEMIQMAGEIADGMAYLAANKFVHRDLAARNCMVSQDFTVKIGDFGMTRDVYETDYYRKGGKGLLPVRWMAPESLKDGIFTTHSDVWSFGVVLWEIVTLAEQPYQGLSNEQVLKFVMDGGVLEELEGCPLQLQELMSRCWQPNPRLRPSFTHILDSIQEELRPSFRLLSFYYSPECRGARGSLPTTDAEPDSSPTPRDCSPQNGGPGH

| SMILES | Activity [1] | Activity [2] | Activity [3] | Activity [4] | Activity [5] | Activity [6] | Activity [7] | Activity [8] | Activity [9] | Activity [10] | Activity [11] | GI50 [12] | Activity [13] | Activity [14] | Activity [15] | Activity [16] | Activity [17] | Activity [18] | Activity [19] | GI50 [20] | further results |
| --- | --- | --- | --- | --- | --- | --- | --- | --- | --- | --- | --- | --- | --- | --- | --- | --- | --- | --- | --- | --- | --- |
| CN(C)CCCC(=O)Nc1ccc2nccc(Nc3cccc(Br)c3)c2c1 | 94% | 75% | 30% | 27% | 52% | 79% | 103% | 86% | 82% | 36% | 109% | > 500 nM | 5% | 81% | 36% | 36% | 88% | 48% | 4% | > 500 nM | Activity [21]: 85%; Activity [22]: 90%; Activity [23]: 94%; Activity [24]: 71%; Activity [25]: 44%; Activity [26]: 21%; GI50 [27]: > 500 nM; Activity [28]: 30%; Activity [29]: 31%; Activity [30]: 84%; Activity [31]: 92%; Activity [32]: 37%; Activity [33]: 46% |
| CN(C)CCCC(=O)Nc1ccc2ncnc(Nc3cccc(Br)c3)c2c1 | 85% | 74% | 48% | 38% | 51% | 70% | 126% | 90% | 83% | 37% | 95% | > 5000 nM | 17% | 78% | 50% | 79% | 95% | 18% | 7% | > 5000 nM | Activity [21]: 78%; Activity [22]: 96%; Activity [23]: 86%; Activity [24]: 105%; Activity [25]: 66%; Activity [26]: 14%; GI50 [27]: > 5000 nM; Activity [28]: 57%; Activity [29]: 37%; Activity [30]: 65%; Activity [31]: 89%; Activity [32]: 39%; Activity [33]: 12% |
